PubChem BioAssay (NCI)
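Cells were grown in 96-well plates and exposed to each compound for 48 hours at five concentrations; endpoints were interpolated linearly between bracketing concentrations, or set to the highest concentration if not reached. The concentration for 50% growth inhibition is given as GI50. TGI denotes the concentration required for complete inhibition of growth.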 Where a SMILES comes first, the peptide text is derived from it. [ ]: non-standard residue; d: D form. The star is where a group is joined. Ac5c = NC1(C(=O)O)CCCC1; Boc = CC(C)(C)OC(=O)*; tBu = CC(C)(C)*

Columns and labels:
Experiment in all cases: DTP human tumour cell line panel, 48 h
[1] = test system: HOP-92 NSCLC
[2] = test system: NCI-H226 lung
[3] = test system: NCI-H23 lung
[4] = test system: UACC-257 melanoma
[5] = test system: 786-0 renal
[6] = test system: A498 renal
[7] = test system: A549 NSCLC
[8] = test system: ACHN renal
[9] = test system: BT-549 breast
[10] = test system: CAKI-1 renal
[11] = test system: CCRF-CEM leukemia
[12] = test system: COLO 205 colon
[13] = test system: DU-145 prostate
[14] = test system: EKVX NSCLC
[15] = test system: HCC-2998 colon
[16] = test system: HCT-116 colon
[17] = test system: HCT-15 colon
[18] = test system: HL-60(TB) leukemia
[19] = test system: HOP-62 NSCLC
[20] = test system: HS 578T breast
[21] = test system: IGROV1 ovarian
[22] = test system: K-562 leukemia
[23] = test system: KM12 colon
[24] = test system: LOX IMVI melanoma
[25] = test system: M14 melanoma
[26] = test system: MCF7 breast
[27] = test system: MDA-MB-231 breast
[28] = test system: MDA-MB-435
[29] = test system: NCI-H460 lung
[30] = test system: NCI-H522 lung
[31] = test system: NCI/ADR-RES ovarian
[32] = test system: OVCAR-3 ovarian
[33] = test system: OVCAR-4 ovarian
[34] = test system: OVCAR-5 ovarian
[35] = test system: OVCAR-8 ovarian
[36] = test system: PC-3 prostate
[37] = test system: RPMI-8226 leukemia
[38] = test system: RXF 393 renal
[39] = test system: SF-268 CNS
[40] = test system: SF-295 CNS
[41] = test system: SF-539 CNS
[42] = test system: SK-MEL-2 melanoma
[43] = test system: SK-MEL-28 melanoma
[44] = test system: SK-MEL-5 melanoma
[45] = test system: SK-OV-3 ovarian
[46] = test system: SN12C renal
[47] = test system: SNB-19 CNS
[48] = test system: SR leukemia
[49] = test system: SW-620 colon
[50] = test system: TK-10 renal
[51] = test system: U251 CNS
[52] = test system: UACC-62 melanoma
[53] = test system: UO-31 renal

With `CC(OC(C)(C)C)C1NC(=O)C(CCCCNC(=O)OC(C)(C)C)NC(=O)C(Cc2c[nH]c3ccccc23)NC(=O)C(Cc2ccccc2)NC(=O)C2(CCCC2)NC(=O)C(Cc2ccccc2)NC1=O` (stereo not given) (cyclo([Ac5c]FWK(Boc)T(tBu)F); configuration not given here) the TGI [1] was 67.1 µM, the TGI [2] was 47.6 µM and the TGI [3] was > 100 µM. The TGI [4] was 46.6 µM.
Molecule `Cc1cc(S(=O)(=O)Nc2nc3ccccc3s2)c(SCc2ccccc2)cc1Cl` has a GI50 [5] of 16.9 µM, a TGI [5] of 32.1 µM and a GI50 [6] of 12.9 µM. For the same molecule, the TGI [6] was 28.6 µM, the GI50 [7] was 13.9 µM and the TGI [7] was 31.8 µM. The GI50 [8] was 14 µM, the TGI [8] was 27.8 µM and the GI50 [9] was 20.9 µM. The TGI [9] was 60.5 µM, the GI50 [10] was 4.12 µM and the TGI [10] was 17.6 µM. The GI50 [11] was 13.1 µM, the TGI [11] was 51.3 µM and the GI50 [12] was 30 µM. For the same molecule, the TGI [12] was 68.4 µM, the GI50 [13] was 15.5 µM and the TGI [13] was 36.9 µM. For the same molecule, the GI50 [14] was 13.2 µM, the TGI [14] was 49.2 µM and the GI50 [15] was 13.8 µM. For the same molecule, the TGI [15] was 26.7 µM, the GI50 [16] was 15.1 µM and the TGI [16] was 28.4 µM. For the same molecule, the GI50 [17] was 15.2 µM, the TGI [17] was 30.8 µM and the GI50 [18] was 17.3 µM. The TGI [18] was 45.4 µM, the GI50 [19] was 31.6 µM and the TGI [19] was > 100 µM. It also gave a GI50 [1] of 11.8 µM, a TGI [1] of 43.6 µM and a GI50 [20] of 20.2 µM. For the same molecule, the TGI [20] was 62 µM, the GI50 [21] was 27.4 µM and the TGI [21] was 94.3 µM. The GI50 [22] was 15.6 µM, the TGI [22] was > 100 µM and the GI50 [23] was 18.8 µM. It also gave a TGI [23] of 61.9 µM, a GI50 [24] of 12.1 µM and a TGI [24] of 24.5 µM. It also gave a GI50 [25] of 19.2 µM, a TGI [25] of 36.6 µM and a GI50 [26] of 31 µM. For the same molecule, the TGI [26] was > 100 µM, the GI50 [27] was 16.9 µM and the TGI [27] was 37.7 µM. The GI50 [28] was 15.7 µM, the TGI [28] was 31.7 µM and the GI50 [2] was 19.3 µM. The TGI [2] was 45.9 µM, the GI50 [3] was 13.8 µM and the TGI [3] was 26.7 µM. The GI50 [29] was 21.4 µM, the TGI [29] was > 100 µM and the GI50 [30] was 31.5 µM. For the same molecule, the TGI [30] was > 100 µM, the GI50 [31] was 15.8 µM and the TGI [31] was 35.9 µM. For the same molecule, the GI50 [32] was 8 µM, the TGI [32] was 23.3 µM and the GI50 [33] was 13.2 µM. It also gave a TGI [33] of 51.8 µM, a GI50 [34] of 18.8 µM and a TGI [34] of 36.7 µM. For the same molecule, the GI50 [35] was 17 µM, the TGI [35] was 44.9 µM and the GI50 [36] was 13.5 µM. It also gave a TGI [36] of 28.8 µM, a GI50 [37] of 9.25 µM and a TGI [37] of 37.2 µM. The GI50 [38] was 23.8 µM, the TGI [38] was 49.7 µM and the GI50 [39] was 27.1 µM. It also gave a TGI [39] of 73.9 µM, a GI50 [40] of 11 µM and a TGI [40] of 32.4 µM. The GI50 [41] was 16.5 µM, the TGI [41] was 32.7 µM and the GI50 [42] was 37.2 µM. The TGI [42] was > 100 µM, the GI50 [43] was 21.9 µM and the TGI [43] was 52.7 µM. It also gave a GI50 [44] of 12.5 µM, a TGI [44] of 25 µM and a GI50 [45] of 32.4 µM. It also gave a TGI [45] of 98.4 µM, a GI50 [46] of 14.3 µM and a TGI [46] of 28.6 µM. For the same molecule, the GI50 [47] was 28.2 µM, the TGI [47] was > 100 µM and the GI50 [48] was 18.3 µM. For the same molecule, the TGI [48] was 58 µM, the GI50 [49] was 18.8 µM and the TGI [49] was 37.6 µM. For the same molecule, the GI50 [50] was 14.1 µM, the TGI [50] was 44.7 µM and the GI50 [51] was 13.6 µM. It also gave a TGI [51] of 26.4 µM, a GI50 [4] of 18.3 µM and a TGI [4] of 45.9 µM. It also gave a GI50 [52] of 10.8 µM, a TGI [52] of 27.9 µM and a GI50 [53] of 19.4 µM. For the same molecule, the TGI [53] was 45.9 µM.
